This note sets out measurements from PMC5656517 (European journal of pharmaceutical sciences : official …, 2017).

The target of one data set is T1, CYP2B6 (Homo sapiens, UniProt P20813).
T1 sequence (P20813 1-491): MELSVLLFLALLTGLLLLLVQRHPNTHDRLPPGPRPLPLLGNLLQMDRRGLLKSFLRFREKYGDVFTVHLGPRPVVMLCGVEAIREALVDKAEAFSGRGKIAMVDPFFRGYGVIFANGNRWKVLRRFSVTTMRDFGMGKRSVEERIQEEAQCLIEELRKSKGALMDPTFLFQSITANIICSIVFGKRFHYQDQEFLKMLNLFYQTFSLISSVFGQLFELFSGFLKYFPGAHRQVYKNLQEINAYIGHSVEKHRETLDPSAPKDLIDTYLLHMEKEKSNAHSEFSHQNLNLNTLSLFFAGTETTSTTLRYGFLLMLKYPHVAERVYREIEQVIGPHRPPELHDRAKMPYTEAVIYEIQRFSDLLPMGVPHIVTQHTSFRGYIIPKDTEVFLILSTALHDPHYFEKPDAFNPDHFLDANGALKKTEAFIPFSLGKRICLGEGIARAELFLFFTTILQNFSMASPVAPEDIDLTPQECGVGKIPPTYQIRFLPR
The experiment in a line: Cocktail assay IC50 determination in human liver microsomes. Conditions: substrate bupropion, mean ± standard deviation.

The target of data set [1] is T2, CYP3A4 (Homo sapiens, UniProt P08684). Put plainly: Single point time-dependent inhibition screening assay in human liver microsomes. For orientation: Liver microsomes are vesicles of endoplasmic reticulum, rich in cytochrome P450 enzymes.
The next data set concerns the target T3, CYP2C8 (Homo sapiens, UniProt P10632).
T3 sequence (P10632 1-490): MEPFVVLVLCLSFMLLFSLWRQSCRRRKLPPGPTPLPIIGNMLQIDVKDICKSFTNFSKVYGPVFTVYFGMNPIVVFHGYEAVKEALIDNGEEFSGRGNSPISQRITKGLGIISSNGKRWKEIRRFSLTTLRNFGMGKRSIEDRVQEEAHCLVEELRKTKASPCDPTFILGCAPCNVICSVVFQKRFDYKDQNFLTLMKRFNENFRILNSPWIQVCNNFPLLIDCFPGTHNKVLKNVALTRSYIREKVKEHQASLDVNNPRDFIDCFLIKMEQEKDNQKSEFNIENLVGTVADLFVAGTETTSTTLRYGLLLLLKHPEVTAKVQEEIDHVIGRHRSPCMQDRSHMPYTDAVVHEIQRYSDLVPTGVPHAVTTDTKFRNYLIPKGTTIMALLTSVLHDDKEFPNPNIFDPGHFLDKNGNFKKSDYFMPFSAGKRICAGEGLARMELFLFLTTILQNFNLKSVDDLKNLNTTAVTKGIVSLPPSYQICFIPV
Put plainly: Single concentration. Conditions: human liver microsomes.

Another data set deals with CYP3A4 (midazolam) (Homo sapiens, UniProt P08684). Put plainly: KI and kinact determination in human liver microsomes. The format is in vitro ADME.
The target of data set [2] is T2, CYP3A4. The experiment in a line: Cocktail assay IC50 determination in human liver microsomes. Conditions: mean ± standard deviation.
The next data set concerns the target T4, CYP1A2 (Homo sapiens, UniProt P05177).
T4 sequence (P05177 1-516): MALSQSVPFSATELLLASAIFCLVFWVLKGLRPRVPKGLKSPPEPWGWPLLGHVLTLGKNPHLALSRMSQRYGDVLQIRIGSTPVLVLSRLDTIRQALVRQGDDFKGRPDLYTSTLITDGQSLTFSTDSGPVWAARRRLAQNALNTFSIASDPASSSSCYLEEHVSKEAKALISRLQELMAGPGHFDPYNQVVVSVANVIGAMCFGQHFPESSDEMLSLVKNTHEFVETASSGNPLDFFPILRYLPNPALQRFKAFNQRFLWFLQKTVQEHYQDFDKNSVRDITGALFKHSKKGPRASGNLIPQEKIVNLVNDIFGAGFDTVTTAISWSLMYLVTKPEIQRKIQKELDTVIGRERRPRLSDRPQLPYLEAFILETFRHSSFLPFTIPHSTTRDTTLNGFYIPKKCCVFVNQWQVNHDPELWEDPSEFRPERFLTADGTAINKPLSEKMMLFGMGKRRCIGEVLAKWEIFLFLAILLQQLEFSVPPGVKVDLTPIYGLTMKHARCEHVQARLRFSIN
Described as above. Conditions: substrate phenacetin, mean ± standard deviation.

In data set [3] the target is T2, CYP3A4. The format is in vitro ADME. To be noted: human liver microsomes, 100 µM.
Data set [4] concerns the target T2, CYP3A4. The experiment in a line: Single concentration. Conditions: human liver microsomes.
The test system of a further data set is cytochrome P450 enzymes. Put plainly: Single concentration. To be noted: test concentration of 10 µM.

Converted amounts (≈) assume the structure as drawn. Like-named read-outs stand apart in the source and are kept apart here.

CYP3A4 (midazolam), sequence (P08684 whole entry): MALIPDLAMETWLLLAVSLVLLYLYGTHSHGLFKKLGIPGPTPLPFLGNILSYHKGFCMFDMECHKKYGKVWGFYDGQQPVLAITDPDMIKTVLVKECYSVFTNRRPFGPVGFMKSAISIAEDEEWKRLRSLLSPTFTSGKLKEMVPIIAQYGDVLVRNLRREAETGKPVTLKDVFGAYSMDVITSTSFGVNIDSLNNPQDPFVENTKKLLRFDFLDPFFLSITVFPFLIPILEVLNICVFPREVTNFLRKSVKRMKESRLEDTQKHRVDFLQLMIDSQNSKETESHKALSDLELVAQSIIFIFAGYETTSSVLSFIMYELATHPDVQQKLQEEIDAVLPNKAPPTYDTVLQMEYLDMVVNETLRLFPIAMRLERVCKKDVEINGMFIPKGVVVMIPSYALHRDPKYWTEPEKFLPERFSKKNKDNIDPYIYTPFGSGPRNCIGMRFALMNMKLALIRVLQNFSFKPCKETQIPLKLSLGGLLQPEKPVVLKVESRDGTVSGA
T2 sequence (P08684 whole entry): as above

For `C=CC(C)(C)c1cc(/C=C/C(=O)c2ccc(O)cc2)c(OC)cc1O` [Licochalcone A, licochalcone A], the “IC50, CYP2B6” value at CYP2B6 is reported as 17.96 ± 4.58 µg/mL (≈ 53.1 µM). In addition, the “time-dependent inhibition of CYP3A4 (midazolam), in words” value at CYP3A4 [1] was “demonstrated time-dependent inhibition”. Also, the “inhibition of CYP2C8 at 10 µM, in words” value against CYP2C8 was “strongly inhibited”. The same compound yielded an Efficiency of inactivation on CYP3A4 (midazolam) (human liver microsomes) of 0.0033 µM⁻¹ min⁻¹. Besides, on CYP3A4 (midazolam) (human liver microsomes), the “kinact for inactivation of CYP3A4 (midazolam)” value came to 0.38 min⁻¹. Also, the “type of CYP3A4 inhibition, conclusion in words” value at CYP3A4 (midazolam) (human liver microsomes and recombinant CYP3A4) was “mechanism based inhibitor”. At CYP3A4 (midazolam) (read-out: KI for inactivation of CYP3A4 (midazolam), human liver microsomes), the KI (inactivation) amounted to 116 µM. The “IC50, CYP3A4 (midazolam)” value at CYP3A4 [2] (substrate midazolam) is on record as 16.05 ± 1.91 µg/mL (≈ 47.4 µM). Further, the “IC50, CYP3A4 (testosterone)” value against CYP3A4 [2] (substrate testosterone) is listed as 6.78 ± 1.27 µg/mL (≈ 20 µM). For the same compound, the “IC50, CYP1A2” value at CYP1A2 came out at 12.40 ± 3.47 µg/mL (≈ 36.6 µM). Further, the “% Control activity” value at CYP3A4 [3] (NADPH, 2 mM glutathione) was found to be 38.5%; on CYP3A4 [3] (NADPH, 1000 U/mL catalase) it was 42.4%; at CYP3A4 [3] (NADPH, 1000 U/mL superoxide dismutase), 46.9%; on CYP3A4 [3] (NADPH, mean of two experiments) it was 49.5%; at CYP3A4 [3] (without NADPH, mean of two experiments), 100%. The “inhibition of CYP3A4 (testosterone) at 10 µM, in words” value against CYP3A4 [4] is “moderate inhibitor”. In addition, the “inhibition of one or more cytochrome P450 enzymes” value with cytochrome P450 enzymes is recorded as “more than 50%”.
